Experimental data published in patent US12115155B2, “Solid dosage form of a nicotine concentration” (Fertin Pharma A/S, priority 2017, dated 2024).

Details: nicotine concentration increased from 100 microgram/mL to 14,000 microgram/mL

SMILES: CN1CCCC1c1cccnc1 (stereo not shown) [nicotine]
- change of permeability of nicotine across the buccal mucosa: decrease of about a factor of two
